Results on one compound are retold here after paper PMC7019173, “Stapled peptide targeting the CDK4/Cyclin D interface combined with Abemaciclib inhibits KRAS mutant lung cancer growth” (Theranostics, 2020).

Experiment [1] deals with H358 orthotopic lung tumours. The experiment can be described thus: Antitumour efficacy in mice with orthotopic lung tumour. The class given is in vivo. How it is done:
Luciferase-modified human H358 NSCLC cells (H358-Luc cells) were suspended in medium with 10 mM EDTA and 5 mg/mL Matrigel (BD Biosciences) at 5.10^6 cells/50 μL. Six-week-old female NMRI nude mice (Janvier, Le Genest, Saint Isle, France) were anesthetized (isoflurane/air 4% for induction and 1.5% thereafter), and cells were inoculated in the lungs via the airways as previously described, [48]. Non-invasive in vivo bioluminescence imaging (IVIS Kinetic, Perkin-Elmer) was used 10 min after the intraperitoneal injection of 10 mg/mL D-Luciferin (Promega, Charbonnières, France) to monitor the quality of the implantation and to follow orthotopic growth, [48]. […] Five weeks after the inoculation of H358-Luc cells, when bioluminescent orthotopic tumours were detected, nude mice were randomly divided into 6 groups. […] To determine proliferative index, total and Ki67 positive tumour epithelial cells were scored on two to eight fields per mouse in three or four mice per group, and reported as percentage of Ki67 positive cells. […] Total and p-RB positive tumour epithelial cells were scored on two to twenty-nine fields per mouse in three or four mice per group, and reported as percentage of p-RB positive cells in each field and each treatment group.

Experiment [2] has as its system A549 cells. The experiment can be described thus: cells. The class given is cell-based, human. As to conditions: Homo sapiens, A549; 48 hours, crystal violet, at least two independent experiments (n=4/experiment) ± SD, Grafit; read-out: IC50 A549 cell proliferation. As to the method: Non-small cell lung cancer A549, H358 and PC9 cell lines used in this study. Cell culture media, serum and antibiotics were purchased from Life Technologies. All cell lines were cultured in RPMI + Glutamax supplemented with 10% FCS, 100 units/mL penicillin (G sodium salt) and 100 µg/mL streptomycin at 37 °C in an atmosphere containing 5% CO2. […] Stock solutions of drugs were prepared in DMSO and freshly diluted in PBS to the desired concentration prior to use, then added onto unsynchronized cells cultured to subconfluency (60-70%), which were then further incubated for 24, 48 or 72 h. Cell proliferation was determined by crystal violet assay following treatment with drugs. Cells were washed with PBS, fixed with 3.7% formaldehyde for 10 min and then incubated with 0.1% crystal violet dye for 30 min. After rinsing, crystals were dissolved in 10% acetic acid and viability was determined by measuring absorbance at 595 nm.

Experiment [3] concerns A549 cells. The experiment can be described thus: Flow cytometry cell cycle analysis. The class given is cell-based, human. As to conditions: 24 h, Abemaciclib 0.5 and 5 µM, Ctrl stapled peptide 10 µM, P2short 1 or 10 µM. As to the method: Cells were trypsinized and fixed in 70% ice cold ethanol, washed in PBS and resuspended in PBS-1% BSA-50 mM citrate with 25 µg/mL RNase A for 15 min at 37 °C, supplemented with 25 µg/mL of propidium iodide for 30 min at room temperature. For each condition 20000 events were analysed by Gallios (Beckman Coulter) and data analysis was performed using FlowJo Software.

As for `CCN1CCN(Cc2ccc(Nc3ncc(F)c(-c4cc(F)c5nc(C)n(C(C)C)c5c4)n3)nc2)CC1` [Abemaciclib], the “effect on H358 orthotopic tumour growth, single agent” value in experiment [1] (bioluminescence, 3 weeks, Abemaciclib 10 mg/kg daily oral, P2shortA 0.45 mg/kg intrapulmonary 2 times a week, n=10) was “slightly reduced tumour growth”. In addition, in experiment [1] (intrapulmonary P2shortA or Abemaciclib alone, immunohistochemistry), the “Ki67 or pRb levels in tumours, single agent” value is on record as “did not reduce Ki67 or pRb levels”. Moreover, the IC50 in experiment [2] was 2.72 ± 2.21 µM. Besides, the “effect on the cell cycle (proportion of cells in G1)” value in experiment [3] was “significantly increased the proportion of cells in G1”.
